The nature of series [1]: Plasma stability of prodrugs (bioconversion to parent drug). It counts as in vitro ADME. The protocol: Approximately 1 mg/mL of stock solution of each prodrug was prepared in 100 μL of ethanol and 900 μL of acetonitrile. Next, 10 μL of stock was spiked into 1 mL of plasma and vortexed. The samples were kept sealed in an amber vial and samples were obtained to analyze for bioconversion to parent drug.
An approximated 1 mg/mL stock solution of each prodrug was prepared in 100 μL of ethanol and 900 μL of acetonitrile. Next, 10 μL of stock was spiked into 1 mL of plasma and vortexed. The samples were kept sealed in an amber vial and samples were obtained to analyze for bioconversion to parent drug.
Approximately 1 mg/mL of stock solution of each prodrug was prepared in 100 μL of ethanol and 900 μL of acetonitrile. Ten μL of stock was spiked into 1 mL of plasma and vortexed. The samples were kept sealed in an amber vial and samples were obtained to analyze for bioconversion to parent drug.

A short description of series [2]: In vitro human skin permeation, flow-through diffusion cells. The note with it: for Flux enhancement: total THC equivalents.
The mark [3] stands for this setting: Table 18, 90:8:2 PG:H2O:IPM donor solution, analyte: THC or intact prodrug as applied.
[4] abbreviates: Table 4, gel formulation, analyte: THC from prodrug.
Where [5] appears, read: Table 4, gel formulation, analyte: THC or intact prodrug (PD).
Where [6] appears, read: Table 17, 90:8:2 PG:H2O:IPM donor solution, analyte: THC from prodrug.
The mark [7] stands for this setting: Table 17, 90:8:2 PG:H2O:IPM donor solution, analyte: THC or intact prodrug as applied.
Setting [8] is: Table 17, 90:8:2 PG:H2O:IPM donor solution.
The mark [9] stands for this setting: Table 17, 90:8:2 PG:H2O:IPM donor solution, total THC equivalents (THC and/or prodrug).
Where [10] appears, read: Table 8, gel formulation, analyte: THC or intact prodrug as applied.
[11] abbreviates: Table 9, 2.36:1.18:1 pH = 5.5 PG:ethanol:H2O donor solution, analyte: THC or intact prodrug as applied.
Setting [12] is: Table 10, 2.36:1.18:1 pH = 5.5 PG:ethanol:H2O donor solution, analyte: THC or intact prodrug as applied.
Setting [13] is: Table 7, 2.36:1.18:1 PG:ethanol:H2O donor solution, analyte: THC or intact prodrug as applied.

Regarding `CCCCCc1cc(OC(=O)C(C)(CO)CO)c2c(c1)OC(C)(C)[C@@H]1CCC(C)=C[C@@H]21` [ALL00129, Δ^9-Tetrahydrocannabinol 3-hydroxy-2-(hydroxymethyl)-2-methylpropanoate], the “% Prodrug at time (h)” value in series [1] (Table 15, 0.1 h) is listed as 100%; in series [1] (Table 15, 1 h), 100%; in series [1] (Table 15, 3 h) it was 98%; in series [1] (Table 15, 24 h), 83%. The “24 h cumulative amt” value in series [2] (setting [3]) is 74.2 ± 8.1 nmol. Also, the “24 h skin conc” value in series [2] (setting [3]) turned out to be 19.6 ± 12.6 µmol/g. The Flux in series [2] (setting [3]) was 4.8 ± 0.7 nmol/cm^2/h. Besides, in series [2] (setting [3]), the Lag time is reported as 7.8 ± 1.3 h.

With `CCCCCc1cc(OC(=O)OC[C@@H](O)CO)c2c(c1)OC(C)(C)[C@@H]1CCC(C)=C[C@@H]21` [ALL00138, Δ^9-Tetrahydrocannabinol (S)-2,3-dihydroxypropyl carbonate], the “% Prodrug at time (h)” value in series [1] (Table 15, 0.1 h) came to 30%. In addition, the “% Prodrug at time (h)” value in series [1] (Table 15, 0.5 h) came to 0%. For the same compound, in series [2] (setting [3]), the “24 h cumulative amt” value is 18.2 ± 1.4 nmol, the “24 h skin conc” value worked out at 7.2 ± 4.8 µmol/g, the Flux is listed as 1.0 ± 0.0 nmol/cm^2/h and the Lag time is given as 5.9 ± 1.4 h.

`CCCCCc1cc(OC(=O)CN(C)C)c2c(c1)OC(C)(C)[C@@H]1CCC(C)=C[C@@H]21` [ALL00118, Δ^9-Tetrahydrocannabinol N,N-dimethylglycyl ester]: the “% Prodrug at time (h)” value is 100% in series [1] (Table 11, 0.1 h); 94% in series [1] (Table 11, 1 h); 86% in series [1] (Table 11, 22 h); 81% in series [1] (Table 11, 24 h); 15% in series [1] (Table 11, 42 h); 100% in series [1] (Table 15, 0.1 h). Also, the “% Prodrug at time (h)” value is listed as 94% in series [1] (Table 15, 1 h); 86% in series [1] (Table 15, 2 h); 81% in series [1] (Table 15, 2.5 h); 15% in series [1] (Table 15, 24 h). Moreover, the “24 h skin conc” value was found to be 7.1 ± 2.4 µmol/g in series [2] (Table 3, 1:1:1 PG:ethanol:H2O donor solution, analyte: THC from prodrug); 37.3 ± 23.2 µmol/g in series [2] (Table 3, 1:1:1 PG:ethanol:H2O donor solution, analyte: THC or intact prodrug (PD)); 65.9 ± 24.7 µmol/g in series [2] (setting [4]); 48.8 ± 30.2 µmol/g in series [2] (setting [5]); 3.7 ± 0.6 µmol/g in series [2] (setting [6]); 9.8 ± 5.2 µmol/g in series [2] (setting [7]). Further, in series [2] (setting [9]), the “24 h skin conc” value came out at 13.5 ± 5.8 µmol/g. The “24 h cumulative amt” value turned out to be 5.6 ± 0.5 nmol in series [2] (setting [6]), 5.8 ± 0.4 nmol in series [2] (setting [7]) and 11.4 ± 0.7 nmol in series [2] (setting [9]). Further, the Flux in series [2] (setting [6]) worked out at 0.4 ± 0.0 nmol/cm^2/h; in series [2] (setting [7]), 0.5 ± 0.0 nmol/cm^2/h; in series [2] (setting [9]), 0.9 ± 0.1 nmol/cm^2/h. Moreover, the Lag time in series [2] (setting [6]) is 10.2 ± 0.3 h; in series [2] (setting [7]), 12.8 ± 0.1 h; in series [2] (setting [9]) it was 11.6 ± 0.2 h. The Flux enhancement in series [2] (setting [8]) came out at 0.90.

As for `CCCCCc1cc(OC(=O)CCN(C)C)c2c(c1)OC(C)(C)[C@@H]1CCC(C)=C[C@@H]21` [ALL00153, Δ^9-Tetrahydrocannabinol 3-(dimethylamino)propionate], the “% Prodrug at time (h)” value in series [1] (Table 14, 0 h) was 98%; in series [1] (Table 14, 1 h), 72%; in series [1] (Table 14, 21 h), 48%; in series [1] (Table 14, 24 h) it was 41%. In addition, the “24 h skin conc” value in series [2] (Table 13, gel formulation with 40% aqueous PEG 400 receiver fluid, analyte: THC or intact prodrug as applied) was 1.6 ± 0.03 µmol/g; in series [2] (Table 20, 90:8:2 PG:H2O:IPM donor solution (saturated), analyte: THC or intact prodrug as applied) it was 0.6 ± 0.1 µmol/g.

For the compound `CCCCCc1cc(OC(=O)CCC(=O)O)c2c(c1)OC(C)(C)[C@@H]1CCC(C)=C[C@@H]21` [ALL00123, Δ^9-Tetrahydrocannabinol hemisuccinate], the “% Prodrug at time (h)” value in series [1] (Table 11, 0.1 h) is 0%; in series [1] (Table 11, 1 h), 0%; in series [1] (Table 11, 22 h) it was 0%; in series [1] (Table 11, 24 h), 0%; in series [1] (Table 11, 42 h), 0%. Moreover, the “24 h cumulative amt” value in series [2] (setting [10]) worked out at 2.3 ± 1.5 nmol. Besides, the “24 h skin conc” value in series [2] (setting [10]) was 110.4 ± 22.2 µmol/g. Further, the Flux in series [2] (setting [10]) came to 0.15 ± 0.07 nmol/cm^2/h.

For `CCCCCc1cc(OC(=O)OCCOCCOCCOCCOC)c2c(c1)OC(C)(C)[C@@H]1CCC(C)=C[C@@H]21` [ALL00119, Δ^9-Tetrahydrocannabinol 3,6,9,12-tetraoxatridecyl carbonate], the “% Prodrug at time (h)” value in series [1] (Table 11, 0.1 h) was 100%; in series [1] (Table 11, 1 h), 82%; in series [1] (Table 11, 22 h), 64%; in series [1] (Table 11, 24 h), 51%; in series [1] (Table 11, 42 h), 0%. For the same compound, the “24 h skin conc” value in series [2] (setting [11]) came out at 13.6 ± 7.5 µmol/g; in series [2] (Table 9, 2.36:1.18:1 pH = 5.5 PG:ethanol:H2O donor solution, total THC equivalents (THC and/or prodrug)), 13.6 ± 7.5 µmol/g.

As to `CCCCCc1cc(OC(=O)NCCCCN)c2c(c1)OC(C)(C)[C@@H]1CCC(C)=C[C@@H]21` [ALL00124, Δ^9-Tetrahydrocannabinol 4-aminobutyl carbamate], the “% Prodrug at time (h)” value in series [1] (Table 11, 0.1 h) came out at 97%; in series [1] (Table 11, 1 h), 97%; in series [1] (Table 11, 2 h) it was 97%; in series [1] (Table 11, 3 h) it was 96%; in series [1] (Table 11, 5 h), 94%; in series [1] (Table 11, 24 h) it was 71%. Also, the “24 h cumulative amt” value turned out to be 138.7 ± 101.2 nmol in series [2] (setting [11]) and 245.2 ± 54.1 nmol in series [2] (setting [12]). Moreover, the “24 h skin conc” value in series [2] (setting [11]) was 17.3 ± 0.4 µmol/g; in series [2] (setting [12]) it was 4.3 ± 0.3 µmol/g. The Flux in series [2] (setting [11]) was 9.4 ± 5.9 nmol/cm^2/h; in series [2] (setting [12]), 16.1 ± 0.1 nmol/cm^2/h. For the same compound, the Lag time in series [2] (setting [11]) is listed as 9.1 ± 2.0 h; in series [2] (setting [12]), 1.4 ± 0.0 h.

For the compound `CCCCCc1cc(OC(=O)COCCOCCOCCOC)c2c(c1)OC(C)(C)[C@@H]1CCC(C)=C[C@@H]21` [ALL00117, Δ^9-Tetrahydrocannabinol 3,6,9,12-tetraoxatridecanoyl ester], the “% Prodrug at time (h)” value in series [1] (Table 15, 0.1 h) worked out at 100%; in series [1] (Table 15, 1 h) it was 35%; in series [1] (Table 15, 2.5 h) it was 7%; in series [1] (Table 15, 3.5 h) it was 5%. The “24 h skin conc” value in series [2] (Table 2, 100% PG donor solution, analyte: THC from prodrug) turned out to be 1.1 ± 0.0 µmol/g; in series [2] (Table 2, 100% PG donor solution, analyte: THC or intact prodrug (PD)), 8.9 ± 7.1 µmol/g; in series [2] (setting [4]), 0.7 ± 0.1 µmol/g; in series [2] (setting [5]), 13.8 ± 4.1 µmol/g; in series [2] (setting [7]), 7.3 ± 1.8 µmol/g; in series [2] (setting [9]), 7.3 ± 1.8 µmol/g. In addition, the “24 h cumulative amt” value stood at 1.7 ± 0.0 nmol in series [2] (Table 4, gel formulation); 0.7 ± 0.7 nmol in series [2] (setting [6]); 3.0 ± 0.3 nmol in series [2] (setting [7]); 3.7 ± 1.0 nmol in series [2] (setting [9]). Also, the Flux in series [2] (Table 4, gel formulation) amounted to 0.07 ± 0.00 nmol/cm^2/h; in series [2] (setting [7]) it was 0.4 ± 0.1 nmol/cm^2/h; in series [2] (setting [9]), 0.5 ± 0.1 nmol/cm^2/h. In addition, the Lag time in series [2] (setting [7]) is given as 15.1 ± 0.2 h; in series [2] (setting [9]), 15.4 ± 0.3 h. Further, the Flux enhancement in series [2] (setting [8]) came to 0.45.

For `CCCCCc1cc(OC(=O)CN(C)C=O)c2c(c1)OC(C)(C)[C@@H]1CCC(C)=C[C@@H]21` [ALL00121, Δ^9-Tetrahydrocannabinol N-formylsarcosyl ester], the “% Prodrug at time (h)” value is 100% in series [1] (Table 11, 0.1 h); 50% in series [1] (Table 11, 1 h); 10% in series [1] (Table 11, 22 h); 14% in series [1] (Table 11, 24 h); 0% in series [1] (Table 11, 42 h). For the same compound, the entries for the “24 h cumulative amt” value in series [2] (setting [13]) and in series [2] (setting [10]) were 18.5 ± 5.6 nmol and 8.8 ± 0.1 nmol, respectively. In addition, the entries for the “24 h skin conc” value in series [2] (setting [13]) and in series [2] (setting [10]) were 72.3 ± 54.0 µmol/g and 33.2 ± 7.2 µmol/g, respectively. The Flux in series [2] (setting [13]) was determined as 1.2 ± 0.3 nmol/cm^2/h; in series [2] (setting [10]) it was 0.38 ± 0.03 nmol/cm^2/h. Also, the Lag time in series [2] (setting [13]) came to 8.3 ± 0.5 h; in series [2] (setting [10]), 1.4 ± 0.0 h.

As for `CCCCCc1cc(OC(=O)OC[C@H](O)CO)c2c(c1)OC(C)(C)[C@@H]1CCC(C)=C[C@@H]21` [ALL00126, Δ^9-Tetrahydrocannabinol (R)-2,3-dihydroxypropyl carbonate], the “% Prodrug at time (h)” value in series [1] (Table 15, 0.1 h) worked out at 100%. Also, the “% Prodrug at time (h)” value in series [1] (Table 15, 1 h) worked out at 3%. In addition, the “% Prodrug at time (h)” value in series [1] (Table 15, 2.5 h) came to 1%. Besides, the “% Prodrug at time (h)” value in series [1] (Table 15, 3.5 h) is given as 1%. Also, in series [2] (setting [7]), the “24 h cumulative amt” value amounted to 69.7 ± 10.7 nmol, the “24 h skin conc” value was determined as 17.8 ± 4.8 µmol/g, the Flux is given as 5.7 ± 0.0 nmol/cm^2/h and the Lag time is on record as 10.8 ± 2.1 h.

These data come from US9957246B2, “Prodrugs of tetrahydrocannabinol, compositions comprising prodrugs of tetrahydrocannabinol and methods of using the same” (Zynerba Pharmaceuticals, Inc., priority 2007, dated 2018).
